Data reported in ChEMBL document CHEMBL1157952, “Neocimicigenosides A and B, cycloartane glycosides from the rhizomes of Cimicifuga racemosa and their effects on CRF-stimulated ACTH secretion from AtT-20 cells” (2006).

Tested on: AtT20
Experiment: Induction of corticotropin releasing factor-stimulated ACTH secretion in mouse AtT20 cells
Assay type: functional

CC(=O)O[C@H]1[C@H]2C[C@@H](C)[C@H]3[C@](O2)(OC1(C)C)[C@H](O)[C@@]1(C)[C@@H]2CC[C@H]4C(C)(C)[C@@H](O[C@@H]5OC[C@H](O)[C@H](O)[C@H]5O)CC[C@@]45C[C@@]25CC[C@]31C [NEOCIMICIGENOSIDE A]
Activity: 7 ng/mL

CC(=O)O[C@H]1[C@H]2C[C@@H](C)[C@H]3[C@](O2)(OC1(C)C)[C@H](O)[C@@]1(C)[C@@H]2CC[C@H]4C(C)(C)[C@@H](O[C@@H]5OC[C@@H](O)[C@H](O)[C@H]5O)CC[C@@]45C[C@@]25CC[C@]31C [NEOCIMICIGENOSIDE B]
Activity: 7.2 ng/mL
